The test system of this experiment is adult primary rat dorsal root ganglia (DRG). Description: In vitro chemotherapy-induced peripheral neuropathy in rat DRGs treated with cisplatin. It is filed as cell-based, Sprague Dawley rat. The note with it: 5 μM compound + 0.5 mM cisplatin, 4 days. The procedure: ACY-1083, obtained from MedChem Express, is a published HDAC6-selective inhibitor and was used as a benchmark. Blinded DMSO was used as an additional negative control. […] Nerve degeneration was evaluated by blebs per area as visualized by fluorescent imaging of beta tubulin staining. Axon area was also evaluated by fluorescent imaging of beta tubulin staining.
Select exemplary compounds were evaluated for prevention of nerve degeneration in an in vitro chemotherapy induced neuropathy model using adult primary rat dorsal root ganglia (DRG). Compounds were blinded for treatment and analysis, using DMSO as a vehicle control. […] Blebs (fragments) signify the beginning of the nerve degeneration process. Total axon area is related to neuron survival and is a more general measure of neuroprotection.
Dissociation solution (100 mL of HBSS with 2 mL of HEPES (1 M, pH 7.25)) was prepared and precooled to 4° C. on study day 1. A 24 well cell culture plate was coated with ECL. Each well was coated with 0.3 mL of ECL solution (1:25 in sterile PBS) and incubated overnight at 37° C. ECL solution was aspirated and the well plate was rinsed with neurobasal medium on study day 2. […]

Turning to `O=C(NO)c1cc(F)c2c(c1)CCN1CCC[C@@H]21` (single isomer, unassigned) [compound 79], the “Axon area compared to vehicle in the presence of cisplatin (FIG. 3B)” value is “increased axon area”.

`O=C(NO)c1ccc(CN2C[C@H]3CC[C@@H]2CO3)c(F)c1` (single isomer, unassigned) [compound 173]: the “Nerve degeneration: blebs per area compared to vehicle in the presence of cisplatin (FIG. 3A)” value was “decreased blebs per area”.

The record behind these values is US12528767B2, “HDAC6 inhibitors and uses thereof” (Eikonizo Therapeutics, Inc., priority 2019, dated 2026).
